Consider four molecules from patent US4657865A, “Pullulanase-like enzyme, method for preparation thereof, and method for saccharification of starch therewith” (Agency of Industrial Science & Technology, priority 1985, dated 1987).

One assay relates to pullulanase-like enzyme. The assay can be described thus: Inhibition of the pullulanase activity by metal salts. It counts as biochemical, Bacillus subtilis. Conditions: inhibitor concentration 1×10^-3 M. On the procedure: (6) Inhibitor: This enzyme undergoes not less than 90% of inhibition by each of HgCl2 and AgNO3 used in a concentration of 1×10^-3 M and about 70% of inhibition by ZnSO4 used in the same concentration.
(10) Procedure for determination of activity: This enzyme is added in a suitable amount to 0.5 ml of a 1% pullulan solution (pH 7.0) obtained by dissolving pullulan in 0.1M phosphate buffer. The mixture is made up to a total volume of 1 ml with water and incubated at 40° C. The amount of this enzyme which is required in producing reducing power equivalent to 1μ mole of glucose after one minute standing under the aforementioned conditions is defined as one unit.

Assay [1] concerns Bacillus subtilis (FERM BP-672) parent strain. The assay can be described thus: Growth on culture medium containing Tunicamycin, parent strain. The format is cell-based. Conditions: culture medium containing Tunicamycin 25-100 μg/ml. The source says: (§1) The aforementioned pullulanase-like enzyme is produced by a bacterium isolated from soil and identified to be Bacillus subtilis (FERM BP-672). […] It has been designated as Bacillus subtilis TU strain, deposited with Fermentation Research Institute, Agency of Industrial Science & Technology on Oct. 13, 1984 under FERM 7893, and also transferred to the International Deposition based on the Budapest Treaty on Dec. 20, 1984 and designated FERM BP-684.
(§2) A strain of Bacillus subtilis (FERM BP-672) was suspended in distilled water and irradiated with the ultraviolet light (15 W) from its source at a distance of about 30 cm for 5 minutes. Part of the irradiated suspension was placed in a culture medium containing 75 μg of Tunicamycin per ml (containing 1% of polypepton, 1% of soluble starch, 0.3% of K2 HPO4, and 0.1% of MgSO4.7H2 O) and aerobically cultured therein at 30° C. for three days. The grown microorganism was sprayed on a plate culture medium with the same culture medium containing agar and incubated at 30° C. The colonies which grew were preserved on a slant medium of the same composition. In the Tunicamycin-resistant mutants so produced, there was obtained in high frequency a strain of enhanced activity to produce the pullulanase-like enzyme. Bacillus subtilis TU strain (FERM BP-684) was thus obtained.

For assay [2], the system named is Bacillus subtilis TU strain. The assay can be described thus: Growth on culture medium containing Tunicamycin, TU strain. It counts as cell-based. Conditions: culture medium containing Tunicamycin 25-100 μg/ml.
Text: as §1, §2

On to `O=[N+]([O-])[O-].[Ag+]` [AgNO3], for which the inhibition result with pullulanase-like enzyme is listed as “not less than 90%”.
Regarding `[Cl][Hg][Cl]` [HgCl2], the inhibition result in the assay with pullulanase-like enzyme is reported as “not less than 90%”.
The same measure, in the same setting: the entry for `O=S(=O)([O-])[O-].[Zn+2]` [ZnSO4] is “about 70%”.
For Tunicamycin, in assay [1], the “growth of the parent strain” value was “fails to show any growth”. For the same molecule, the “growth of the TU strain” value in assay [2] is “grows fairly well”.
